Molecules are shown by their SMILES.

In one data set the target is T1, hPPARβ (Homo sapiens, UniProt Q03181).
T1 sequence (Q03181 171-441 limits assumed): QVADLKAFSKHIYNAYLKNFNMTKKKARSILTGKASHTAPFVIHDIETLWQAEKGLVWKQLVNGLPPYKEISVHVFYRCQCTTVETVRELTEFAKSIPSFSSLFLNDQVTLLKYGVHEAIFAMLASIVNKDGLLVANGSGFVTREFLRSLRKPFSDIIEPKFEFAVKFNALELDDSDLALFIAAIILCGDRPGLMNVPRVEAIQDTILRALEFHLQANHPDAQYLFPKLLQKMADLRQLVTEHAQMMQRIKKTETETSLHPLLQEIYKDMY
Nature of the data set: Transient transfection assay in HepG2 cells, Gal4-hPPARβ chimeric receptor, luciferase reporter. The following applies: Hep G2-hBeta EC50, 24 hours incubation; read-out: EC50β nM (Group). The class given is cell-based. As for the experimental part:
(§1) 1. Test A. Transient Transfections Assay using the HepG2 Hepatoma Cell Line.
(§2) HepG2 cells were transiently transfected with an expression plasmids encoding hPPARα, hPPARβ or mPPARγ chimeric receptors and a reporter containing the yeast upstream activating sequence (UAS) upstream of the viral E1B promoter controlling a luciferase reporter gene. In addition, the plasmid pRSVβ-gal was used to control for transfection efficiency. HepG2 cells were grown in DMEM supplemented with 10% FBS and 1 μM non-essential amino acid. On the first day, cells were split into 100 mm dishes at 2.5×10^6/dish and incubated overnight at 37° C./5% CO2. On the second day the cells were transiently transfected with plasmid DNA encoding a chimeric receptor, the luciferase reporter gene; and β-gal. For each 100 mm dish, 15 μg of lucifease reporter (PG5E1b) DNA, 15 μg of Gal4-PPAR chimeric receptor DNA, and 1.5 μg of β-gal plasmid DNA were mixed with 1.4 ml of opti-MEM in the tube. 28 μl of LipoFectamine-2000 reagent was added to 1.4 ml of opti-MEM in the tube, and incubate for 5 min at RT. The diluted Lipofectamine-2000 reagent was combined with the DNA mixture, and incubate for 20 min at RT. After fresh medium was added to each 100 mm dish of cells, 2.8 ml of Lipofectamine2000-DNA mixture was added dropwise to the 100 mm dish containing 14 ml of medium, and incubate 37° C. overnight. On day three cells were trypsinized off the 100 mm dishes and re-plated on 96 well plates. Cells were plated at 2.5×10^4 cells per well in 150 μl of media and 50 μl of compound diluted by media was added. The test compound added were in the range from 50 μM to 50 pM. After addition of compounds, the plates were incubated at 37° C. for 24 hours. Subsequently cells were washed with once with 100 μl of PBS, lysed, and processed for measuring luciferase and β-gal activity using Dual-Light luciferase kit from Tropix ®, according to the manufacturer's recommendations, on an EG&G Bethold MicroLumat LB96P luminometer. EC50 values were obtained using the GraphPad Prism™ program.

The target of a further data set is T2, hPPARα (Homo sapiens, UniProt Q07869).
T2 sequence (Q07869 200-468 limits assumed): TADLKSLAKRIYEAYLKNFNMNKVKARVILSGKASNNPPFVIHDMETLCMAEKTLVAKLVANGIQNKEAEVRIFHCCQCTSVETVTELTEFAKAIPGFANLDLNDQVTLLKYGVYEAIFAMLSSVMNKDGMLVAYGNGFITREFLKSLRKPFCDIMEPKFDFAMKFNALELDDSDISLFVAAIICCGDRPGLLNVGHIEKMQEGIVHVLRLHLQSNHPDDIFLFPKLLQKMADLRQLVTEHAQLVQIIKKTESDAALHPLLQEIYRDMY
The data set can be described thus: Transient transfection assay in HepG2 cells, Gal4-hPPARα chimeric receptor, luciferase reporter. The class given is cell-based. As to conditions: Hep G2-hAlpha EC50, 24 hours incubation; read-out: EC50α nM (Group). As for the experimental part:
as §1, §2
(In general: Reporter assays use an easily measured gene product as a stand-in for the process of interest.)

`COc1cc(OCC(=O)O)c(C)cc1SCc1ccc(-c2ccccc2)cc1` [Example 1, [4-(Biphenyl-4-ylmethylsulfanyl)-5-methoxy-2-methyl-phenoxy]-acetic acid] showed a melting point of 60 to 62 °C. In addition, the EC50 at hPPARβ is < 300 nM. The EC50 on hPPARα is < 300 nM.
In the case of `COc1cc(OCC(=O)O)c(C)cc1SCc1ccc(-c2cccc(C(F)(F)F)c2)cc1` [Example 9, [5-Methoxy-2-methyl-4-(3′-trifluoromethyl-biphenyl-4-ylmethylsulfanyl)-phenoxy]-acetic acid], the melting point was in the range of 138 to 139 °C. For the same compound, the EC50 at hPPARβ is < 300 nM. Also, on hPPARα, the EC50 was < 300 nM.
Compound `COc1cc(OCC(=O)O)c(C)cc1SCc1ccc(OCc2ccc(C(F)(F)F)cc2)cc1` [Example 14, {5-Methoxy-2-methyl-4-[4-(4-trifluoromethyl-benzyloxy)-benzylsulfanyl]-phenoxy}-acetic acid] came in with a melting point of 145 °C. For the same compound, at hPPARα, the EC50 is < 300 nM.
`COc1cc(OCC(=O)O)c(C)cc1SCc1cccc(-c2cccc(OC(F)(F)F)c2)c1` [Example 16, [5-Methoxy-2-methyl-4-(3′-trifluoromethoxy-biphenyl-3-ylmethylsulfanyl)-phenoxy]-acetic acid] had a melting point of 92 to 94 °C. Besides, the EC50 on hPPARβ was < 300 nM. The EC50 on hPPARα is < 300 nM.
Consider `COc1cc(OCC(=O)O)c(C)cc1SCc1ccc(-c2ccc(C(F)(F)F)cn2)cc1` [Example 18, {5-Methoxy-2-methyl-4-[4-(5-trifluoromethyl-pyridin-2-yl)-benzylsulfanyl]-phenoxy}-acetic acid], for which the melting point is 225 °C (dec.). The EC50 at hPPARβ is < 300 nM. Further, at hPPARα, the EC50 is > 5000 nM.
For `COc1cc(OCC(=O)O)c(C)cc1SCc1ccc(-c2ccc(C(F)(F)F)cc2)nc1` [Example 19, {5-Methoxy-2-methyl-4-[6-(4-trifluoromethyl-phenyl)-pyridin-3-ylmethylsulfanyl]-phenoxy}-acetic acid], the melting point was 203 °C (dec.). On hPPARβ, the EC50 was < 300 nM. Moreover, the EC50 on hPPARα was < 300 nM.
Regarding `Cc1cc(SCc2ccc(-c3ccc(C(F)(F)F)cc3)cc2)c(Cl)cc1OCC(=O)O` [Example 20, [5-Chloro-2-methyl-4-(4′-trifluoromethyl-biphenyl-4-ylmethylsulfanyl)-phenoxy]-acetic acid], the melting point is 161 to 162 °C. The EC50 on hPPARβ is < 300 nM. Also, the EC50 at hPPARα lay within 2000 to 5000 nM.
Compound `Cc1cc(SCCc2ccc(-c3ccc(C(F)(F)F)cc3)cc2)ccc1OCC(=O)O` [Example 22, {2-Methyl-4-[2-(4′-trifluoromethyl-biphenyl-4-yl)-ethylsulfanyl]-phenoxy}-acetic acid] registered a melting point of 132 to 134 °C. Besides, on hPPARβ, the EC50 lay in the range of 1000 to 2000 nM. The EC50 on hPPARα was 500 to 1000 nM.
`COc1cc(OCC(=O)O)c(C)cc1SCCc1ccc(-c2ccc(C(F)(F)F)cc2)cc1` [Example 23, {5-Methoxy-2-methyl-4-[2-(4′-trifluoromethyl-biphenyl-4-yl)-ethylsulfanyl]-phenoxy}-acetic acid] gave a melting point of 169 to 171 °C. The EC50 at hPPARβ is < 300 nM. Further, on hPPARα, the EC50 was < 300 nM.
Compound `Cc1cc(CCc2ccc(-c3ccc(C(F)(F)F)cc3)cc2)ccc1OCC(=O)O` [Example 25, {2-Methyl-4-[2-(4′-trifluoromethyl-biphenyl-4-yl)-ethyl]-phenoxy}-acetic acid] gave a melting point of 174 to 176 °C. Moreover, the EC50 on hPPARβ lay in the range of 2000 to 5000 nM. Moreover, on hPPARα, the EC50 is 1000 to 2000 nM.
`Cc1cc(SCc2ccc(-c3ccc(C(F)(F)F)cn3)cc2)c2c(c1OCC(=O)O)CCC2` [Example 27, {5-Methyl-7-[4-(5-trifluoromethyl-pyridin-2-yl)-benzylsulfanyl]-indan-4-yloxy}-acetic acid] came in with a melting point of 186 °C. The EC50 on hPPARβ lay within 2000 to 5000 nM. Moreover, the EC50 on hPPARα was in the range of 500 to 1000 nM.
On to `Cc1cc(SCc2ccc(-c3ccc(C(F)(F)F)cc3)cc2)c2c(c1OCC(=O)O)CCC2` [Example 28, [5-Methyl-7-(4′-trifluoromethyl-biphenyl-4-ylmethylsulfanyl)-indan-4-yloxy]-acetic acid], for which the melting point came out at 177 °C. Also, at hPPARβ, the EC50 fell in the range of 1000 to 2000 nM. Besides, on hPPARα, the EC50 is 1000 to 2000 nM.
In the case of `COc1cc(OCC(=O)O)c(C)cc1SCc1cc(-c2ccc(C(F)(F)F)cc2)on1` [Example 43, {5-Methoxy-2-methyl-4-[5-(4-trifluoromethyl-phenyl)-isoxazol-3-ylmethylsulfanyl]-phenoxy}-acetic acid], the EC50 at hPPARβ was < 300 nM; on hPPARα, 500 to 1000 nM.
The like results for `O=C(O)COc1ccc(SCc2cc(-c3ccc(C(F)(F)F)cc3)on2)c2c1CCC2` [Example 44, {7-[5-(4-Trifluoromethyl-phenyl)-isoxazol-3-ylmethylsulfanyl]-indan-4-yloxy}-acetic acid] were, in that order, 500 to 1000 nM and > 5000 nM.
Taken in the same sequence, the figures for `COc1cc(OCC(=O)O)c(C)cc1SCc1cc(-c2ccc(C(F)(F)F)cc2)no1` [Example 46, {5-Methoxy-2-methyl-4-[3-(4-trifluoromethyl-phenyl)-isoxazol-5-ylmethylsulfanyl]-phenoxy}-acetic acid] were < 300 nM and < 300 nM.
With `O=C(O)COc1ccc(SCc2cccc(-c3ccc(C(F)(F)F)cc3)c2)c2c1CCC2` [Example 48, [7-(4′-Trifluoromethyl-biphenyl-3-ylmethylsulfanyl)-indan-4-yloxy]-acetic acid], the EC50 on hPPARβ is < 300 nM; at hPPARα it was 2000 to 5000 nM.
Taken in the same sequence, the figures for `COc1cc(OCC(=O)O)c(C)cc1SCc1cccc(-c2ccc(C(F)(F)F)cc2)c1` [Example 49, [5-Methoxy-2-methyl-4-(4′-trifluoromethyl-biphenyl-3-ylmethylsulfanyl)-phenoxy]-acetic acid] were < 300 nM and 300 to 500 nM.
The like results for `CCCc1cc(SCc2ccc(-c3ccc(C(F)(F)F)cc3)cc2)ccc1OCC(=O)O` [Example 52, [2-Propyl-4-(4′-trifluoromethyl-biphenyl-4-ylmethylsulfanyl)-phenoxy]-acetic acid] were, in that order, < 300 nM and 500 to 1000 nM.
Consider `O=C(O)COc1ccc(SCc2cccc(-c3ccc(C(F)(F)F)cn3)c2)c2c1CCC2` [Example 53, {7-[3-(5-Trifluoromethyl-pyridin-2-yl)-benzylsulfanyl]-indan-4-yloxy}-acetic acid], for which the EC50 at hPPARβ was < 300 nM; on hPPARα, 1000 to 2000 nM.
For the compound `O=C(O)COc1ccc(SCc2ccc(OCc3ccc(C(F)(F)F)cc3)cc2)c2c1CCC2` [Example 63, {7-[4-(4-Trifluoromethyl-benzyloxy)-benzylsulfanyl]-indan-4-yloxy}-acetic acid], the melting point amounted to 145 °C. Also, the EC50 on hPPARα is 2000 to 5000 nM.
In turn, `O=C(O)COc1ccc(SCc2cccc(OCc3ccc(C(F)(F)F)cc3)c2)c2c1CCCO2` [Example 84, {8-[3-(4-Trifluoromethyl-benzyloxy)-benzylsulfanyl]-chroman-5-yloxy}-acetic acid] had a melting point of 113 to 115 °C. In addition, the EC50 on hPPARα is > 5000 nM.

A word on the melting point: it is the temperature, or range, at which the solid turns liquid.

The values are drawn from patent US6964983B2, “Compounds that modulate PPAR activity and methods for their preparation” (Warner-Lambert Company, LLC, priority 2002, dated 2005).
